Test results reported in US20060189574A1, “Method of treating high plasma cholesterol levels” (priority 2000, published 2006).

Experiments:
plasma cholesterol = experiment: Effect of Orlistat/XENICAL and cholestyramine/[…] on plasma cholesterol in volunteers; type: in vivo, human; details: for plasma cholesterol, mean: mean of volunteers
Excerpt: The effect of a combination of Orlistat/XENICAL® and a bile acid sequestrant cholestyramine/[…]® on plasma cholesterol was examined.
Three hyper-cholesterolemic volunteers, one female, 2 males, […] cholesterol level: They continued on a combination of […], […]

animal models = details: cited from earlier work
fat absorption = details: humans; cited from earlier work

CCCCCCCCCCC[C@@H](C[C@@H]1OC(=O)[C@H]1CCCCCC)OC(=O)[C@H](CC(C)C)NC=O [Xenical, Orlistat]
plasma cholesterol course (plasma cholesterol; all three individuals, end of 6 weeks treatment with Xenical b.i.d.): reasonably stable | plasma cholesterol, mean (plasma cholesterol; week 4, Xenical b.i.d.): 252 mg/100 ml | plasma cholesterol, mean (plasma cholesterol; week 5, Xenical b.i.d.): 225 mg/100 ml | plasma cholesterol, mean (plasma cholesterol; week 6, Xenical b.i.d.): 247 mg/100 ml | plasma cholesterol, mean (plasma cholesterol; week 11, Xenical b.i.d. after cessation of Quantalan): 253 mg/100 ml | plasma cholesterol, mean (plasma cholesterol; week 13, Xenical b.i.d. after cessation of Quantalan): 263 mg/100 ml | plasma cholesterol (plasma cholesterol; volunteer 1, week 4, Xenical b.i.d.): 252 mg/100 ml | plasma cholesterol (plasma cholesterol; volunteer 1, week 5, Xenical b.i.d.): 239 mg/100 ml | plasma cholesterol (plasma cholesterol; volunteer 1, week 6, Xenical b.i.d.): 233 mg/100 ml | plasma cholesterol (plasma cholesterol; volunteer 1, week 11, Xenical b.i.d. after cessation of Quantalan): 247 mg/100 ml | plasma cholesterol (plasma cholesterol; volunteer 2, week 4, Xenical b.i.d.): 236 mg/100 ml | plasma cholesterol (plasma cholesterol; volunteer 2, week 5, Xenical b.i.d.): 212 mg/100 ml | plasma cholesterol (plasma cholesterol; volunteer 2, week 6, Xenical b.i.d.): 232 mg/100 ml | plasma cholesterol (plasma cholesterol; volunteer 2, week 11, Xenical b.i.d. after cessation of Quantalan): 230 mg/100 ml | plasma cholesterol (plasma cholesterol; volunteer 2, week 13, Xenical b.i.d. after cessation of Quantalan): 226 mg/100 ml | plasma cholesterol (plasma cholesterol; volunteer 3, week 4, Xenical b.i.d.): 269 mg/100 ml | plasma cholesterol (plasma cholesterol; volunteer 3, week 6, Xenical b.i.d.): 277 mg/100 ml | plasma cholesterol (plasma cholesterol; volunteer 3, week 11, Xenical b.i.d. after cessation of Quantalan): 282 mg/100 ml | plasma cholesterol (plasma cholesterol; volunteer 3, week 13, Xenical b.i.d. after cessation of Quantalan): 300 mg/100 ml | body weight (animal models): reduce body weight | fat absorption (animal models): inhibit fat absorption | fat absorption (fat absorption): potent inhibition of fat absorption
